Assay results: ChEMBL document CHEMBL1126421, “Total synthesis of myo-inositol-1-phosphate-4,5-pyrophosphate, a novel second messenger analogue, via myo-inositol-1-phosphate-4,5-bisphosphorothioate” (Bioorg Med Chem Lett, 1992)

Biological target: T1, Inositol polyphosphate-5-phosphatase A (Homo sapiens, UniProt Q14642)
T1 sequence (Q14642 whole entry): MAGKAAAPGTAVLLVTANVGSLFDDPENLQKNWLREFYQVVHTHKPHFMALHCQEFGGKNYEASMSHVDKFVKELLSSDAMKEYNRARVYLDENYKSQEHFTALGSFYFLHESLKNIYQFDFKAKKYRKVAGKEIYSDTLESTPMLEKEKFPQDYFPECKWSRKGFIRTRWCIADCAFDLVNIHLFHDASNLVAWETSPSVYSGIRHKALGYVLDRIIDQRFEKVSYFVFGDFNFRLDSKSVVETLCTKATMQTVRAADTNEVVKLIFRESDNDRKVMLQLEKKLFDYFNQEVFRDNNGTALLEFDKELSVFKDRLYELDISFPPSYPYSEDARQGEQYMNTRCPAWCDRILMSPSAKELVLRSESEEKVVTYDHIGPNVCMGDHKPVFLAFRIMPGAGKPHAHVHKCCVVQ
Assay: The compound was evaluated for inhibition of Inositol-1,4,5-trisphosphate 5-phosphatase

O=P(O)(O)OC1C(O)C(O)C(OP(O)(O)=S)C(OP(O)(O)=S)C1O (stereo unspecified)
Ki: 1300 nM
